From patent US11389453B2, “Compositions and methods for treating chemosensory dysfunction” (Cyrano Therapeutics, Inc., priority 2005, dated 2022)
Entries after “also recorded” stand apart in the source; their conditions may differ. Marks after values point to notes of the source that are not given here.

Legend:
Assay type in all cases: in vivo, human
[1] = test system: TRAIL; assay: TRAIL in nasal mucus of patients with hyposmia before and after treatment with theophylline; details: for TRAIL: nasal mucus, patients with hyposmia (5)
[2] = test system: Nitric Oxide (NO); assay: NO in nasal mucus of patients with hyposmia before and after theophylline treatment; details: for NO: nasal mucus, patients (12)
Source text: Table 33 in the examples illustrates NO in nasal mucus in patients treated with theophylline in various doses before and after drug treatment. NO levels in nasal mucus changed following the treatment of patients with smell loss. […] Its continual measurement during treatment of the disorders helps in monitoring efficacy of therapy. The detection of NO in nasal mucus provides a non invasive method of diagnosing various diseases related to human physiology and pathology. The methods of the present invention include treatment of diseases by modulating the concentrations of NO by use of drugs or agents. The method of treatment is preferably by nasal administration.
Table 33 illustrates NO levels in nasal mucus in patients treated with Theophylline in various doses before and after drug treatment. NO levels in nasal mucus changed following the treatment of patients with smell loss. […] Its continual measurement during treatment of these disorders helps in monitoring efficacy of therapy. The detection of NO in nasal mucus provides a non invasive method of diagnosing various diseases related to human physiology and pathology.

[3] = test system: TNFα; assay: TNFα in nasal mucus of patients with hyposmia treated with theophylline; details: for TNF∝: nasal mucus, patients with hyposmia (24)
Source text: (§1) Table 35 illustrates detection and measurement of TNFα, and soluble TNF receptors 1 and 2, moieties in the nasal mucus. TNFα, and soluble TNF receptors 1 and 2 increase in systems undergoing excessive apoptosis.
(§2) These studies were extended to reveal levels of TNFα in nasal mucus of patients with graded loss of smell following treatment with theophylline (Table 36). Smell loss was graded such that loss was greatest in Type I hyposmia, less in Type II and still less in Type III (I>II>III). […] Following treatment which was effective in restoring smell function toward normal, levels of TNFα decreased in each patient group consistent with each increased dose of theophylline which generated a dose dependent increase in smell function—as theophylline dose increased, smell function increased and TNFα levels decreased. In Type I hyposmia TNFα decreased 40% after treatment with 400 mg theophylline and 57% after treatment 600 mg. In Type II hyposmia TNFα decreased 11% after treatment with 600 mg theophylline.

[4] = test system: TNFR 1; assay: TNFR 1 in nasal mucus of patients with hyposmia treated with theophylline; details: for TNFR1: nasal mucus, patients with hyposmia (19)
Source text: as §1
With increased smell loss pre treatment TNFR 1 levels were increased in nasal mucus in patients with Type I hyposmia (whose smell loss was increased over that of patients with Type II hyposmia). […] The greater was the smell loss, the higher was the level of TNFR 1.

[5] = test system: TNFR 2; assay: TNFR 2 in nasal mucus of patients with hyposmia treated with theophylline; details: for TNFR2: nasal mucus, patients with hyposmia (18)
Method: as §1
With a dose dependent increase of theophylline treatment levels of TNFR 2 in nasal mucus decreased consistent with a dose dependent increase in smell function. Levels of TNFR 2 in patients with Type I and Type II hyposmia decreased almost 50% on 600 mg theophylline consistent with their greatest return of smell function. At this highest level of theophylline levels of TNFR 2 were decreased in relationship to the decrease in smell function-TNFR 2, Type I>Type II>Type III; smell loss, Type I>Type II>Type III.

[6] = test system: patients with hyposmia; assay: Smell function (olfactory acuity) in patients with hyposmia treated with theophylline
Source text: as §2

[7] = patients with hyposmia, stepwise increase in theophylline dose
[8] = hyposmia Type I (7), theophylline 200 mg orally daily
[9] = hyposmia Type I (7), theophylline 600 mg orally daily
[10] = hyposmia Type II (10), theophylline 200 mg orally daily
[11] = hyposmia Type II (10), theophylline 400 mg orally daily
[12] = hyposmia Type II (10), theophylline 600 mg orally daily
[13] = hyposmia Type III (2), theophylline 600 mg orally daily

## Cn1c(=O)c2[nH]cnc2n(C)c1=O [theophylline]
[1]; theophylline 200 mg
  TRAIL: 855 µg/mL
[1]; theophylline 400 mg
  TRAIL: 791 µg/mL
[1]; theophylline 600 mg
  TRAIL: 247 µg/mL
[1]; patients with hyposmia, before vs after theophylline at various doses
  TRAIL in nasal mucus, change after treatment: dose-dependent decrease
[2]; Theophylline 200 mg
  NO: 0.25 ± 0.01 µg/mL
[2]; Theophylline 400 mg
  NO: 0.40 ± 0.06 µg/mL
[2]; Theophylline 600 mg
  NO: 0.59 ± 0.16 µg/mL
[2]; patients with hyposmia, theophylline in graded doses
  NO in nasal mucus, change after treatment: increases in nasal mucus NO
[3]; Type I hyposmia, 400 mg theophylline
  TNFα decrease in nasal mucus: 40%
[3]; Type I hyposmia, 600 mg theophylline
  TNFα decrease in nasal mucus: 57%
[3]; Type II hyposmia, 600 mg theophylline
  TNFα decrease in nasal mucus: 11%
[3]; hyposmia Type I (8), theophylline 400 mg orally daily
  TNF∝ in nasal mucus: 15.6
[3]; hyposmia Type I (8), theophylline 600 mg orally daily
  TNF∝ in nasal mucus: 11.2 ± 4.4^
[3]; hyposmia Type II (13), theophylline 200 mg orally daily
  TNF∝ in nasal mucus: 14.9 ± 2.5
[3]; hyposmia Type II (13), theophylline 400 mg orally daily
  TNF∝ in nasal mucus: 11.5 ± 3.2
[3]; hyposmia Type II (13), theophylline 600 mg orally daily
  TNF∝ in nasal mucus: 4.3 ± 0.8^a
[3]; hyposmia Type III (3), theophylline 600 mg orally daily
  TNF∝ in nasal mucus: 1.2 ± 0.7^bc
[3]; Theophylline treatment 200
  TNF∝: 20.0 ± 2.8 µg/mL
[3]; Theophylline treatment 400
  TNF∝: 12.1 ± 2.1 µg/mL
[3]; Theophylline treatment 600
  TNF∝: 7.4 ± 1.8 µg/mL
[3]; [7]
  TNFα in nasal mucus, change after treatment: significant dose-response decrease
[4]; [8]
  TNFR 1 in nasal mucus: 6,521 ± 1,304^c
[4]; hyposmia Type I (7), theophylline 400 mg orally daily
  TNFR 1 in nasal mucus: 1,498
[4]; [9]
  TNFR 1 in nasal mucus: 1,832 ± 704^a
[4]; [10]
  TNFR 1 in nasal mucus: 1,462 ± 371 ^
[4]; [11]
  TNFR 1 in nasal mucus: 1,087 ± 335
[4]; [12]
  TNFR 1 in nasal mucus: 862 ± 335
[4]; [13]
  TNFR 1 in nasal mucus: 585 ± 335
[4]; Theophylline treatment 200
  TNFR1: 3,148 ± 663
[4]; Theophylline treatment 400
  TNFR1: 1,146 ± 220^b
[4]; Theophylline treatment 600
  TNFR1: 1,220 ± 286^ab
[4]; [7]
  TNFR 1 in nasal mucus, change after treatment: significant dose-response decrease; also recorded: TNFR 1 levels decreased in Type I
[5]; Type I and Type II hyposmia, 600 mg theophylline
  TNFR 2 decrease in nasal mucus: ~50%
[5]; [8]
  TNFR2 in nasal mucus: 3,100 ± 1,184
[5]; [9]
  TNFR2 in nasal mucus: 1,491 ± 1,102
[5]; [10]
  TNFR2 in nasal mucus: 1,378 ± 480^
[5]; [11]
  TNFR2 in nasal mucus: 1,014 ± 272
[5]; [12]
  TNFR2 in nasal mucus: 553 ± 158
[5]; [13]
  TNFR2 in nasal mucus: 436 ± 443
[5]; Theophylline treatment 200
  TNFR2: 1,952 ± 339
[5]; Theophylline treatment 400
  TNFR2: 949 ± 180^c
[5]; Theophylline treatment 600
  TNFR2: 916 ± 344
[5]; [7]
  TNFR 2 in nasal mucus, change after treatment: significant dose-response decrease; also recorded: decreased
[6]; 600 mg theophylline
  smell function: restored smell function to or toward normal
[6]; theophylline at various (graded) doses
  smell function: returned smell function to normal in a dose-dependent manner; also recorded: graded increases in smell function; also recorded: stepwise improvement in olfactory acuity
